# Test results from patent publication US20240252677A1, “ONE-COMPONENT DELIVERY SYSTEM FOR NUCLEIC ACIDS” (The Trustees of the University of Pennsylvania, priority 2021, published 2024).
# Legend:
# liver = experiment: In vivo mRNA delivery, IVIS imaging of organs: liver; set-up: species or system mice; key to Organs with luminescence: liver: strong: Strong meant the luminescence intensity in that organ was relatively high, compared to other organs; weak: Weak meant the luminescence intensity in that organ was relatively low, compared to other organs; details: Table 17; mice, IVIS, 4-6 h after injection; intensity relative to other organs
# [1] = Stability of DNPs by DLS after storage at 5° C.; type: physicochemical; set-up: key: Excellent: the original sizes and distribution types remained almost the same after storage; Good: the original sizes and distribution types changed slightly (size difference was less than 100 nm) or the original size remained almost the same but the DLS curve showed more size distributions after storage
# Method in brief: (§1)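 DNPs in acetate buffer sized by DLS after storage at 5 °C. Stability ranked Excellent, Good or Not stable according to retention, shrinkage or growth of original size and narrowing or broadening of size distribution.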
# [2] = Stability of DNPs by DLS after storage at 5° C.; type: physicochemical; set-up: key to Original size distribution type (DLS curve) / Size distribution type (DLS curve): U: DLS curve showed unimodal size distribution; B: DLS curve showed bimodal size distribution; M: DLS curve showed multimodal size distribution; details: for pH Sample: DNPs: IAJD 4.0 mg/mL + Luc-mRNA 0.1 mg/mL, injection in acetate buffer pH 4.00; for PDI / Size (d, nm) / Original size distribution type (DLS curve): IAJD 4.0 mg/mL + Luc-mRNA 0.1 mg/mL; for PDI / Size (d, nm): acetate buffer; for Original size distribution type (DLS curve): before storage, acetate buffer pH 4.00
# Method in brief: as §1
# [3] = Dimensions (size, PDI) of DNPs co-assembled from IAJDs and Luc-mRNA by DLS; type: physicochemical
# Method in brief: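 Hydrodynamic size and PDI were read by dynamic light scattering at 23 °C, 175° backscatter, 633 nm. Particles formed by fast injection of ethanolic IAJD stock (80 mg/mL) into nucleoside-modified luciferase mRNA (stock 4.0 mg/mL) in 10 mM acetate pH 4.0, 5 s vortex.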
# BALB/c mice = experiment: In vivo mRNA delivery in mice with DNPs, whole-body bioluminescence imaging (IVIS)
# lung = experiment: In vivo mRNA delivery, IVIS imaging of organs: lung; set-up: species or system mice; key to Organs with luminescence: lung: strong: Strong meant the luminescence intensity in that organ was relatively high, compared to other organs; weak: Weak meant the luminescence intensity in that organ was relatively low, compared to other organs; details: Table 17; mice, IVIS, 4-6 h after injection; intensity relative to other organs
# [4] = Table 16, DNPs from IAJD 4 mg/mL and Luc-mRNA 0.10 mg/mL by injection in acetate buffer (10 mM, pH 4.0)
# [5] = Table 17, DNPs used in vivo, IAJD 4 mg/mL, Luc-mRNA 0.10 mg/mL, acetate pH 4.0
# [6] = Table 20, nonsymmetric IAJDs and MC3-Luc-mRNA
pH Sample [2],Original size distribution type (DLS curve) [2],"PDI [3, 4]","Size (d, nm) [3, 4] [nm]","PDI [3, 5]","Size (d, nm) [3, 5] [nm]",Ranking of stability ([1]; after 27 days at 5° C.),Size distribution type (DLS curve) ([2]; after 27 days at 5° C.),PDI ([2]; after 27 days at 5° C.),"Size (d, nm) ([2]; after 27 days at 5° C.) [nm]",SMILES,Organs with luminescence: liver (liver),"In vivo activity (total flux, p/s) (BALB/c mice; Table 19, nonsymmetric IAJDs)",Organs with luminescence: lung (lung),further results
4.46,(U),0.270,276,0.270,276,–,–,–,–,"CCCCCCCCCCCCCCCCCOc1cc(COC(=O)CCCN2CCN(CCO)CC2)cc(OCCCCCCCCCCC)c1 [IAJD 127, 3-(Heptadecyloxy)-5-(undecyloxy)benzyl 4-(4-(2-hydroxyethyl)piperazin-1-yl)butanoate]","liver (weak),",1.07 × 10^8 p/s,"Lung (weak),","Ranking of stability ([1]; after 62 days at 5° C.): Good; Size distribution type (DLS curve) ([2]; after 62 days at 5° C.): (B); PDI ([2]; after 62 days at 5° C.): 0.248; Size (d, nm) ([2]; after 62 days at 5° C.): 263 nm"
4.40,(B),0.381,291,0.381,291,–,–,–,–,"CCCCCCCCCCCCCCCCCCOc1cc(COC(=O)CCCN2CCN(CCO)CC2)cc(OCCCCCCCCCCC)c1 [IAJD 128, 3-(Octadecyloxy)-5-(undecyloxy)benzyl 4-(4-(2-hydroxyethyl)piperazin-1-yl)butanoate]","liver (weak),",5.53 × 10^7 p/s,"Lung (weak),","Ranking of stability ([1]; after 70 days at 5° C.): Excellent; Size distribution type (DLS curve) ([2]; after 70 days at 5° C.): (B); PDI ([2]; after 70 days at 5° C.): 0.459; Size (d, nm) ([2]; after 70 days at 5° C.): 210 nm; In vivo activity (total flux, p/s) (BALB/c mice; [6]): 5.53 × 10^7 p/s"
4.52,(B),0.293,230,0.293,230,Excellent,(U),0.266,214,"CCCCCCCCCCCCCCCOc1cc(COC(=O)CCCN2CCN(CCO)CC2)cc(OCCCCCCCCCC)c1 [IAJD 142, 3-(Decyloxy)-5-(pentadecyloxy)benzyl 4-(4-(2-hydroxyethyl)piperazin-1-yl)butanoate]","liver (strong),",2.51 × 10^7 p/s,"Lung (weak),",–
4.40,(B),0.432,236,0.432,236,Excellent,(U),0.276,216,"CCCCCCCCCCCCCCCOc1cc(COC(=O)CCCN2CCN(CCO)CC2)cc(OCCCCCCCCCCCC)c1 [IAJD 144, 3-(Dodecyloxy)-5-(pentadecyloxy)benzyl 4-(4-(2-hydroxyethyl)piperazin-1-yl)butanoate]","liver (weak),",1.39 × 10^7 p/s,"Lung (weak),",–
4.40,(U),0.276,231,0.276,231,Excellent,(U),0.285,227,"CCCCCCCCCCCCCCCOc1cc(COC(=O)CCCN2CCN(CCO)CC2)cc(OCCCCCCCCCCCCC)c1 [IAJD 146, 3-(Pentadecyloxy)-5-(tridecyloxy)benzyl 4-(4-(2-hydroxyethyl)piperazin-1-yl)butanoate]","liver (strong),",4.70 × 10^7 p/s,"Lung (strong),",–

# The next lines start with the compound.
SMILES,pH Sample [2],Original size distribution type (DLS curve) [2],"PDI [3, 4]","Size (d, nm) [3, 4] [nm]","PDI [3, 5]","Size (d, nm) [3, 5] [nm]",Ranking of stability ([1]; after 27 days at 5° C.),Size distribution type (DLS curve) ([2]; after 27 days at 5° C.),PDI ([2]; after 27 days at 5° C.),"Size (d, nm) ([2]; after 27 days at 5° C.) [nm]",Organs with luminescence: liver (liver),"In vivo activity (total flux, p/s) (BALB/c mice; Table 19, nonsymmetric IAJDs)",Organs with luminescence: lung (lung),further results
"CCCCCCCCCCCOc1cc(COC(=O)CCCN2CCN(CCO)CC2)cc(OCC(CC)CCCC)c1 (stereo not shown) [IAJD 130, 3-((2-Ethylhexyl)oxy)-5-(undecyloxy)benzyl 4-(4-(2-hydroxyethyl)piperazin-1-yl)butanoate]",4.50,(U),0.271,172,0.271,172,–,–,–,–,"liver (weak),",1.18 × 10^8 p/s,"Lung (weak),","Ranking of stability ([1]; after 62 days at 5° C.): Excellent; Size distribution type (DLS curve) ([2]; after 62 days at 5° C.): (U); PDI ([2]; after 62 days at 5° C.): 0.282; Size (d, nm) ([2]; after 62 days at 5° C.): 149 nm; In vivo activity (total flux, p/s) (BALB/c mice; [6]): 1.18 × 10^8 p/s"
"CCCCCCCCCCCCCCCOc1cc(COC(=O)CCCN2CCN(C)CC2)cc(OCC(CC)CCCC)c1 (stereo not shown) [IAJD 135, 3-((2-Ethylhexyl)oxy)-5-(pentadecyloxy)benzyl 4-(4-methylpiperazin-1-yl)butanoate]",4.95,(U),0.267,92,0.267,92,Excellent,(U),0.278,92,"liver (strong),",1.22 × 10^7 p/s,"Lung (weak),",–
"CCCCCCCCCCCCCCCOc1cc(COC(=O)CCCN2CCN(CCO)CC2)cc(OCC(CC)CCCC)c1 (stereo not shown) [IAJD 136, 3-((2-Ethylhexyl)oxy)-5-(pentadecyloxy)benzyl 4-(4-(2-hydroxyethyl)piperazin-1-yl)butanoate]",4.57,(U),0.307,149,0.307,149,Excellent,(U),0.296,153,"liver (weak),",1.04 × 10^7 p/s,"Lung (weak),",–
"CCCCCCCCCCCCCCCOc1cc(COC(=O)CCCN2CCN(C)CC2)cc(OCCCCCCCCCC)c1 [IAJD 141, 3-(Decyloxy)-5-(pentadecyloxy)benzyl 4-(4-methylpiperazin-1-yl)butanoate]",4.62,(U),0.313,158,0.313,158,Excellent,(U),0.286,156,"liver (strong),",2.06 × 10^7 p/s,"Lung (weak),",–
"CCCCCCCCCCCCCCCOc1cc(COC(=O)CCCN2CCN(C)CC2)cc(OCCCCCCCCCCCC)c1 [IAJD 143, 3-(Dodecyloxy)-5-(pentadecyloxy)benzyl 4-(4-methylpiperazin-1-yl)butanoate]",4.48,(U),0.270,169,0.270,169,Excellent,(U),0.243,166,"liver (strong),",1.28 × 10^7 p/s,"Lung (strong),",–
"CCCCCCCCCCCCCCCOc1cc(COC(=O)CCCN2CCN(C)CC2)cc(OCCCCCCCCCCCCC)c1 [IAJD 145, 3-(pentadecyloxy)-5-(tridecyloxy)benzyl 4-(4-methylpiperazin-1-yl)butanoate]",4.51,(U),0.306,194,0.306,194,Excellent,(U),0.330,189,"liver (weak),",9.25 × 10^6 p/s,"Lung (strong),",–
